Measured values taken from patent publication US12128029B2, “Treatment of idiopathic pulmonary fibrosis” (VICORE PHARMA AB, priority 2022, dated 2024).

Key:
subjects with IPF = test: Phase II, multi-centre, open-label, single-arm trial of the safety, efficacy and pharmacokinetics of C21 in subjects with IPF; conditions: for mean change in FVC from baseline: C21 100 mg b.i.d. orally (sodium salt capsules), observed data, FIG. 1
Experimental: The primary objective of the study is/was to investigate the safety of C21, 200 mg daily dose (100 mg b.i.d.) administered orally to subjects with IPF. The secondary objectives are/were to evaluate the effect on lung function decline of C21 and the pharmacokinetics of C21 at the same daily dose. Exploratory objectives include the investigation of a range of laboratory parameters as potential biomarkers of inflammation and fibrosis.
The primary endpoint of the trial is the nature and frequency of adverse events occurring over the trial period.
Secondary endpoints included changes from baseline in: • FVC (defined as the maximum amount of air that can be forcibly exhaled from the lungs after fully inhaling) at Weeks 12, 24 and 36; • plasma concentration of C21 and derived PK parameters evaluated in a sub-set of subjects.
C21 has been administered twice daily to the subjects for 36 weeks as follows: • morning dose: two 50 mg capsules (100 mg C21 or placebo) to be taken with a glass of water after minimum 2 hours fasting; and • afternoon/evening dose: two 50 mg capsules (100 mg C21 or placebo) to be taken with a glass of water after minimum 2 hours fasting. Subjects are required not to eat anything for 1 hour after taking the study drug.
The patients were enrolled to receive C21 (100 mg b.i.d.) for 36 weeks in total.

[1] = Sensitivity of C21 and salts to light and water; format: physicochemical; conditions: C21 and salts thereof
[2] = system: model of obstructive lung disease (specifically COPD); conditions: cited from earlier work
patients with IPF = conditions: over the period of a year; cited from earlier work
[3] = interim analysis, 21 subjects, C21 100 mg b.i.d.

| Compound | mean change in FVC from baseline (subjects with IPF; 24 weeks) | difference in mean FVC change versus expected mean decline in untreated patients (subjects with IPF; 24 weeks, expected decline -120 mL, based on previously published IPF trials) | mean change in FVC from baseline (subjects with IPF; 36 weeks) | difference in mean FVC change versus expected mean decline in untreated patients (subjects with IPF; 36 weeks, expected decline -180 mL) | gastrointestinal signals (subjects with IPF; [3]) | overall safety profile (subjects with IPF; [3]) | related serious adverse events (subjects with IPF; [3]) | deaths in the ongoing trial (subjects with IPF; reported to be due to COVID-19 and not related to C21) | p value of slope (change in FVC scaled to 24 weeks, by visit, observed cases) versus expected mean in untreated patients (subjects with IPF; week 28) | p value of slope (change in FVC scaled to 24 weeks, by visit, observed cases) versus expected mean in untreated patients (subjects with IPF; week 32) | p value of slope (change in FVC scaled to 24 weeks, by visit, observed cases) versus expected mean in untreated patients (subjects with IPF; week 36) | sensitivity to the combined presence of light and water [1] | effect on cigarette smoke-induced emphysema [2] | effect on lung functions [2] | reduction in the rate of decline in lung function (FVC measurements) (patients with IPF) |
| --- | --- | --- | --- | --- | --- | --- | --- | --- | --- | --- | --- | --- | --- | --- | --- |
| CCCCOC(=O)NS(=O)(=O)c1sc(CC(C)C)cc1-c1ccc(Cn2ccnc2)cc1 [C21, N-butyloxycarbonyl-3-(4-imidazol-1-ylmethylphenyl)-5-iso-butylthiophene-2-sulfonamide] | +250 mL | +371 mL | +750 mL | +930 mL | no gastrointestinal signals | no safety profile concerns | no related serious adverse events | 1 | 0.012 | 0.032 | 0.016 | extreme sensitivity | prevented cigarette smoke-induced emphysema | improved lung functions | – |
| COC(=O)c1ccc2c(c1)NC(=O)/C2=C(\Nc1ccc(N(C)C(=O)CN2CCN(C)CC2)cc1)c1ccccc1 [nintedanib] | – | – | – | – | – | – | – | – | – | – | – | – | – | – | approximately 50% |
| Cc1ccc(=O)n(-c2ccccc2)c1 [pirfenidone] | – | – | – | – | – | – | – | – | – | – | – | – | – | – | approximately 50% |
